Results taken from ChEMBL document CHEMBL1131189, “Conformationally restricted analogues of 1N,12N-bisethylspermine: synthesis and growth inhibitory effects on human tumor cell lines” (1998).

Columns and labels:
Format in all cases: functional, cell-based
Conditions in all cases: Homo sapiens
[1] = tested on: DU-145; assay: The concentration levels of spermidine (SD) evaluated in DU145 cells treated with the compound concentration of 2 uM on third day of treatment.
[2] = tested on: DU-145; assay: The concentration levels of spermidine (SD) evaluated in DU145 cells treated with the compound concentration of 0.02 uM on third day of treatment.
[3] = tested on: DU-145; assay: The concentration levels of spermidine (SD), evaluated in DU145 cells treated with the compound concentration of 0.02 uM on first day of treatment.
[4] = tested on: DU-145; assay: The concentration levels of spermidine (SD), evaluated in DU145 cells treated with the compound concentration of 2 uM on first day of treatment.
[5] = tested on: DU-145; assay: The concentration levels of analogue evaluated in DU145 cells treated with the compound concentration of 0.02 uM on first day of treatment.
[6] = tested on: DU-145; assay: The concentration levels of analogue evaluated in DU145 cells treated with the compound concentration of 0.02 uM on third day of treatment.
[7] = tested on: DU-145; assay: The concentration levels of analogue evaluated in DU145 cells treated with the compound concentration of 2 uM on first day of treatment.
[8] = tested on: DU-145; assay: The concentration levels of analogue evaluated in DU145 cells treated with the compound concentration of 2 uM on third day of treatment.
[9] = tested on: DU-145; assay: The concentration levels of spermine (SP) evaluated in DU145 cells treated with the compound concentration of 0.02 uM on third day of treatment.
[10] = tested on: DU-145; assay: The concentration levels of spermine (SP) evaluated in DU145 cells treated with the compound concentration of 2 uM on third day of treatment.
[11] = tested on: DU-145; assay: The concentration levels of spermine (SP), evaluated in DU145 cells treated with the compound concentration of 0.02 uM on first day of treatment.
[12] = tested on: DU-145; assay: The concentration levels of spermine (SP), evaluated in DU145 cells treated with the compound concentration of 2 uM on first day of treatment.
[13] = tested on: DU-145; assay: The concentration levels of putrescine (PU) evaluated in DU145 cells treated with the compound concentration of 0.02 uM on first day of treatment.
[14] = tested on: DU-145; assay: The concentration levels of putrescine (PU) evaluated in DU145 cells treated with the compound concentration of 0.02 uM on third day of treatment.
[15] = tested on: DU-145; assay: The concentration levels of putrescine (PU) evaluated in DU145 cells treated with the compound concentration of 2 uM on first day of treatment.
[16] = tested on: DU-145; assay: The concentration levels of putrescine (PU) evaluated in DU145 cells treated with the compound concentration of 2 uM on third day of treatment.

Compound: CCNCCCNCC1CC1CNCCCNCC (stereo in doubt; 5)
- Concentration (nM (10e6*cells)-1) [1]: 1.38
- Concentration (nM (10e6*cells)-1) [2]: 1.41
- Concentration (nM (10e6*cells)-1) [3]: 1.92
- Concentration (nM (10e6*cells)-1) [4]: 2.63
- Concentration (nM (10e6*cells)-1) [5]: 0.14
- Concentration (nM (10e6*cells)-1) [6]: 0.06
- Concentration (nM (10e6*cells)-1) [7]: 0.33
- Concentration (nM (10e6*cells)-1) [8]: 0.18
- Concentration (nM (10e6*cells)-1) [9]: 2.73
- Concentration (nM (10e6*cells)-1) [10]: 2.28
- Concentration (nM (10e6*cells)-1) [11]: 2.48
- Concentration (nM (10e6*cells)-1) [12]: 2.64
- Concentration (nM (10e6*cells)-1) [13]: 0.2
- Concentration (nM (10e6*cells)-1) [14]: 0.08
- Concentration (nM (10e6*cells)-1) [15]: 0.55
- Concentration (nM (10e6*cells)-1) [16]: 0.05
